Measured values reported in patent US20220048884A1, “NRF2 ACTIVATOR” (BIOGEN MA INC., priority 2017, published 2022).

What was measured:
[1] = tested on: Nrf2 target genes; experiment: Nrf2 target gene expression (qRT-PCR) in tissues of mice after oral dosing; assay type: in vivo, C57BL/6 mice; details: wild-type mice, 10 and 50 mg/kg single oral dose, 2 hours after dosing
Description: RNA was extracted in chloroform and the aqueous phase was mixed with an equal volume of 70% ethanol. Extracted RNA was applied to RNeasy 96 plates and purified by the spin method according to the manufacturer's protocol (RNeasy 96 Universal Tissue Protocol, QIAgen, Hilden Germany).

[2] = tested on: human astrocytes; experiment: Glutathione assay in human astrocytes (GSH-Glo); assay type: cell-based; details: 20-hr exposure
Experimental: (§1) Human astrocytes from ScienCell (cat #1820) were grown in astrocyte medium per supplier's instructions. Cells cultured for no more than two passages were plated in 96-well plates at 40,000 cells per well for gene transcription experiments and 20,000 cell per well for glutathione and cytoprotection assays.
Intracellular glutathione was measured after a 20-hr exposure to test compounds by a two-step process. First, cells were lysed and luciferin quantitatively generated from substrate, catalyzed by glutathione-S-transferase in the presence of analyte glutathione. Then luciferin was assayed using stabilized luciferase to produce a luminescent signal proportional to the concentration of glutathione (Promega GSH-Glo, cat #V6912).

[3] = tested on: Nrf2 target genes; experiment: Gene expression (RT-PCR) in cultured human astrocytes; assay type: cell-based; details: 20 hours, increasing concentrations
Experimental: as §1
Primary cultures of human spinal cord astrocytes were treated with compound for 20 hours. The cells were then rinsed in PBS, lysed, and processed for RNA using Ambion Tagman™ Cells-to-CT kit. The resulting cDNA was stored at −20° C. until analysis by real-time polymerase chain reaction (RT-PCR). The cDNA mixture from Cells-to-CT was diluted 5× before loading into PCR. This yields results similar to using 6 ng of purified cDNA. RT-PCR was performed on Life Technologies QuantStudio platform using OpenArray technique according to manufacturer's protocol using the following Taqman primers: […]
The comparative CT method was used to calculate fold changes using ThermoFisher Cloud software for PCR analysis. Samples were compared to vehicle control.

[4] = tested on: human astrocytes; experiment: Cytoprotection of astrocytes against sodium arsenite; assay type: cell-based; details: compound 20 hrs before 25 μM sodium arsenite, then 22 hrs
Experimental: as §1
Astrocytes were treated for 20 hrs as above, then the medium was removed and replaced with serum- and supplement-free growth medium with and without 25 μM sodium arsenite. After 22 hrs., cells were washed with PBS, fixed with 4% paraformaldehyde/4% sucrose in PBS, stained with 4′,6-Diamidino-2-phenylindole dihydrochloride (DAPI) and counted by quantitative fluorescence microscopy.

[5] = tested on: NRF2; experiment: PathHunter Nuclear Translocation assay (DiscoverX), agonist format; assay type: cell-based; details: 6 hours incubation, 10 concentrations, 30 μM top concentration
Description: Vehicle concentration was 1%.
Microplates were read following signal generation with a PerkinElmer Envision™ instrument for chemiluminescent signal detection.

EC50 [5] [nM]	SMILES	expression of Osgin1 in brain [1]	intracellular glutathione [2]	transcription of GCLC [3]	transcription of HMOX1 [3]	transcription of NQO1 [3]	transcription of OSGIN1 [3]	protection from oxidative stress-induced cell death [4]
	CCn1nnc2c(C)c([C@@H](CC(=O)O)c3ccc4c(c3)CN(C(=O)c3c(C)c(C)cc(C)c3C)CC4)ccc21 [Example 47-Ent1, (S)-3-(1-ethyl-4-methyl-1H-benzo[d][1,2,3]triazol-5-yl)-3-(2-(2,3,5,6-tetramethylbenzoyl)-1,2,3,4-tetrahydroisoquinolin-7-yl)propanoic acid]	increases the expression	increases intracellular glutathione	induces transcription	induces transcription	induces transcription	induces transcription	protects cells from oxidative stress-induced cell death
< 100	CCn1nnc2c(C)c([C@H](c3ccc4c(c3)CN(C(=O)c3ccc(C)c(C)c3)CC4)[C@H](C)C(=O)ON)ccc21 [Example 133, amino (2S,3S)-3-[2-(3,4-dimethylbenzoyl)-3,4-dihydro-1H-isoquinolin-7-yl]-3-(1-ethyl-4-methyl-benzotriazol-5-yl)-2-methyl-propanoate]							
